Patent publication US20250042876A1, “HERBICIDAL PYRAZOLE PYRIMIDINE COMPOUNDS” (SYNGENTA CROP PROTECTION AG, priority 2021, published 2025)

Experiments:
Assay type in all cases: in vivo
Settings in all cases: 250 g/ha, evaluated after 13 days
[1] = test system: Echinochloa crus-galli (ECHCG); assay: Pre-emergence herbicidal test, glasshouse
Method: (§1) Seeds of a variety of test species are sown in standard soil in pots Amaranthus palmeri (AMAPA), Amaranthus retoflexus (AMARE), Setaria faberi (SETFA), Echinochloa crus-galli (ECHCG), Ipomoea hederacea (IPOHE)). After cultivation for one day (pre-emergence) or after 8 days cultivation (post-emergence) under controlled conditions in a glasshouse (at 24/16° C., day/night; 14 hours light; 65% humidity), the plants are sprayed with an aqueous spray solution derived from the formulation of the technical active ingredient in acetone/water (50:50) solution containing 0.5% Tween 20 (polyoxyethelyene sorbitan monolaurate, CAS RN 9005-64-5). Compounds are applied at 250 g/ha unless otherwise stated. The test plants are then grown in a glasshouse under controlled conditions in a glasshouse (at 24/16° C., day/night; 14 hours light; 65% humidity) and watered twice daily. After 13 days for pre and post-emergence, the test is evaluated for the percentage damage caused to the plant. The biological activities are shown in the following table on a five-point scale (5=81-100%; 4=61-80%; 3=41-60%; 2=21-40%; 1=0-20%).

[2] = test system: Ipomoea hederacea (IPOHE); assay: Pre-emergence herbicidal test, glasshouse
Method: as §1

[3] = test system: Setaria faberi (SETFA); assay: Pre-emergence herbicidal test, glasshouse
Method: as §1

[4] = test system: Amaranthus palmeri (AMAPA); assay: Pre-emergence herbicidal test, glasshouse
Method: as §1

[5] = test system: Amaranthus retoflexus (AMARE); assay: Pre-emergence herbicidal test, glasshouse
Method: as §1

[6] = test system: Echinochloa crus-galli (ECHCG); assay: Post-emergence herbicidal test, glasshouse
Method: as §1

[7] = test system: Ipomoea hederacea (IPOHE); assay: Post-emergence herbicidal test, glasshouse
Method: as §1

[8] = test system: Setaria faberi (SETFA); assay: Post-emergence herbicidal test, glasshouse
Method: as §1

[9] = test system: Amaranthus palmeri (AMAPA); assay: Post-emergence herbicidal test, glasshouse
Method: as §1

[10] = test system: Amaranthus retoflexus (AMARE); assay: Post-emergence herbicidal test, glasshouse
Method: as §1

Structure (SMILES)	ECHCG percentage damage caused to the plant (five-point scale) [1]	IPOHE percentage damage caused to the plant (five-point scale) [2]	SETFA percentage damage caused to the plant (five-point scale) [3]	AMAPA percentage damage caused to the plant (five-point scale) [4]	AMARE percentage damage caused to the plant (five-point scale) [5]	ECHCG percentage damage caused to the plant (five-point scale) [6]	IPOHE percentage damage caused to the plant (five-point scale) [7]	SETFA percentage damage caused to the plant (five-point scale) [8]	AMAPA percentage damage caused to the plant (five-point scale) [9]	AMARE percentage damage caused to the plant (five-point scale) [10]
FC(F)(F)c1ccc(-n2nc(C(F)(F)F)cc2Cc2ncc(Cl)cn2)cc1 [Compound 1.001, 5-chloro-2-[[5-(trifluoromethyl)-2-[4-(trifluoromethyl)phenyl]pyrazol-3-yl]methyl]pyrimidine]	5 (5=81-100%)	5 (5=81-100%)	5 (5=81-100%)	5 (5=81-100%)	5 (5=81-100%)	4 (4=61-80%)	4 (4=61-80%)	4 (4=61-80%)	4 (4=61-80%)	4 (4=61-80%)
FC(F)(F)c1ccc(-n2nc(C(F)(F)F)cc2Cc2ncc(Br)cn2)cc1 [Compound 1.002, 5-bromo-2-[[5-(trifluoromethyl)-2-[4-(trifluoromethyl)phenyl]pyrazol-3-yl]methyl]pyrimidine]	5 (5=81-100%)	5 (5=81-100%)	4 (4=61-80%)	5 (5=81-100%)	5 (5=81-100%)	5 (5=81-100%)	4 (4=61-80%)	4 (4=61-80%)	4 (4=61-80%)	4 (4=61-80%)
Fc1cnc(Cc2cc(C(F)(F)F)nn2-c2ccc(C(F)(F)F)cc2)nc1 [Compound 1.003]	5 (5=81-100%)	5 (5=81-100%)	5 (5=81-100%)	5 (5=81-100%)	5 (5=81-100%)	5 (5=81-100%)	5 (5=81-100%)	4 (4=61-80%)	5 (5=81-100%)	5 (5=81-100%)
COc1cnc(Cc2cc(C(F)(F)F)nn2-c2ccc(C(F)(F)F)cc2)nc1 [Compound 1.004]	5 (5=81-100%)	5 (5=81-100%)	5 (5=81-100%)	5 (5=81-100%)	5 (5=81-100%)	5 (5=81-100%)	4 (4=61-80%)	5 (5=81-100%)	5 (5=81-100%)	5 (5=81-100%)
N#Cc1ccc(-n2nc(C(F)(F)F)cc2Cc2ncc(Cl)cn2)cc1 [Compound 1.007, 4-[5-[(5-chloropyrimidin-2-yl)methyl]-3-(trifluoromethyl)pyrazol-1-yl]benzonitrile]	5 (5=81-100%)	5 (5=81-100%)	5 (5=81-100%)	5 (5=81-100%)	5 (5=81-100%)	5 (5=81-100%)	3 (3=41-60%)	5 (5=81-100%)	5 (5=81-100%)	5 (5=81-100%)
FC(F)(F)c1cc(Cc2ncc(Cl)cn2)n(-c2ccc(Cl)cc2)n1 [Compound 1.008]	5 (5=81-100%)	4 (4=61-80%)	5 (5=81-100%)	5 (5=81-100%)	5 (5=81-100%)	5 (5=81-100%)	3 (3=41-60%)	5 (5=81-100%)	5 (5=81-100%)	5 (5=81-100%)
N#Cc1cc(Cc2ncc(Cl)cn2)n(-c2ccc(F)c(F)c2)n1 [Compound 1.025, 5-[(5-chloropyrimidin-2-yl)methyl]-1-(3,4-difluorophenyl)pyrazole-3-carbonitrile]	5 (5=81-100%)	5 (5=81-100%)		5 (5=81-100%)	5 (5=81-100%)	5 (5=81-100%)	4 (4=61-80%)	5 (5=81-100%)		5 (5=81-100%)
Fc1cc(-n2nc(C(F)(F)F)cc2Cc2ncc(Cl)cn2)cnc1Cl [Compound 1.026, 5-chloro-2-[[2-(6-chloro-5-fluoro-3-pyridyl)-5-(trifluoromethyl)pyrazol-3-yl]methyl]pyrimidine]	5 (5=81-100%)	5 (5=81-100%)		5 (5=81-100%)	5 (5=81-100%)	5 (5=81-100%)	2 (2=21-40%)	5 (5=81-100%)		5 (5=81-100%)
FC(F)(F)c1ccc(-n2nc(C(F)(F)Cl)cc2Cc2ncc(Cl)cn2)cc1 [Compound 1.036]	5 (5=81-100%)	5 (5=81-100%)	5 (5=81-100%)	5 (5=81-100%)	5 (5=81-100%)	5 (5=81-100%)	3 (3=41-60%)	5 (5=81-100%)		5 (5=81-100%)
Cc1ccc(-n2nc(C(F)(F)F)cc2Cc2ncc(Cl)cn2)cc1 [Compound 1.037, 5-chloro-2-[[2-(p-tolyl)-5-(trifluoromethyl)pyrazol-3-yl]methyl]pyrimidine]	5 (5=81-100%)	1 (1=0-20%)	5 (5=81-100%)	5 (5=81-100%)	5 (5=81-100%)	4 (4=61-80%)	3 (3=41-60%)	5 (5=81-100%)		5 (5=81-100%)
